Measurements: patent US9260504B2, “N- and C-terminal substituted antagonistic analogs of GH-RH” (University of Miami, priority 2008, dated 2016)

Assays:
Type in all cases: in vivo
[1] = system: NCI-N87 human gastric cancer; experiment: NCI-N87 human gastric cancer xenografts in nude mice; conditions: 10 μg/day s.c.
Experimental: NCI-N87 cancers were transplanted s.c. into both flank areas of 30 female nude mice. The mice were randomly assigned into 4 experimental groups with 6 to 9 animals in each group and received single daily injections for 77 days as follows: 1. Control (vehicle solution); 2. JMR-132 (10 μg/day s.c.); 3. Peptide 1109 (10 μg/day s.c.); 4. Peptide 11479 (10 μg/day s.c.). Tumor volumes were measured once a week. The experiment was ended on day 77 by sacrificing the mice under Isoflurane anesthesia. Resulting tumors were cleaned, weighed, and snap-frozen until further analyses. Statistical analyses of the measurement results were done by two-tailed t-test, p<0.05 being considered significant. Data are presented as the means±S.E.

[2] = system: PC-3 human hormone-independent prostate cancer; experiment: PC-3 human prostate cancer xenografts in nude mice, Experiment 4
Experimental: Male nude mice were implanted s.c. with 3 mm^3 pieces of PC-3 human hormone-independent prostate cancer tissue on both flanks. When tumors reached a volume of approximately 50 mm^3, the mice were divided into 12 experimental groups with 8 to 10 animals in each group and received single daily injections for 28 days as follows: 1. Control (vehicle solution); 2. JMR-132 (10 μg/day s.c.); 3. Peptide 11113 (2 μg/day s.c.); 4. Peptide 11119 (2 μg/day s.c.); 5. Peptide 11209 (2 μg/day s.c.); 6. Peptide 11313 (2 μg/day s.c.); 7. Peptide 11408 (2 μg/day s.c.); 8. Peptide 11435 (2 μg/day s.c.); 9. Peptide 11457 (2 μg/day s.c.); 10. Peptide 11459 (2 μg/day s.c.); 11. Peptide 11469 (2 μg/day s.c.); 12. Peptide 11491 (2 μg/day s.c.).
(§1) Tumor volumes were measured once a week. The experiment was ended on day 28 by sacrificing the mice under Isoflurane anesthesia. Resulting tumors were cleaned, weighed, and snap-frozen until further analyses. Statistical analyses of the measurement results were done by two-tailed t-test, p<0.05 being considered significant.
All experimental details of Experiment 4 are the same as for Experiment 3, with the following difference. When tumors reached a volume of approximately 50 mm^3, the mice were divided into 11 experimental groups with 8 to 10 animals in each group and received single daily injections for 46 days as follows: 1. Control (vehicle solution); 2. JMR-132 (10 μg/day s.c.); 3. Peptide 11123 (2 μg/day s.c.); 4. Peptide 11125 (2 μg/day s.c.); 5. Peptide 11213 (2 μg/day s.c.); 6. Peptide 11433 (2 μg/day s.c.); 7. Peptide 11473 (2 μg/day s.c.); 8. Peptide 11485 (2 μg/day s.c.); 9. Peptide 11497 (2 μg/day s.c.); 10. Peptide 11499 (2 μg/day s.c.); 11. Peptide 11521 (2 μg/day s.c.). Tumor volumes were measured once a week. The experiment was ended on day 46 by sacrificing the mice under Isoflurane anesthesia. Resulting tumors were cleaned, weighed, and snap-frozen until further analyses. Statistical analyses of the measurement results were done by two-tailed t-test, p<0.05 being considered significant.

[3] = system: H-460 human non-small cell lung cancer; experiment: H-460 human non-SCLC xenografts in nude mice, Experiment 3; conditions: 28 days; for Tumor growth inhibition after 4 weeks (%): 5 μg/day s.c.; for Inhibition of H-460 lung tumor growth compared with reference peptide JMR-132: 5 μg/day vs JMR-132 10 μg/day
Experimental: Male nude mice were implanted s.c. with 3 mm^3 pieces of H-460 human non-SCLC tumor tissue on both flanks. When tumors had grown to a mean volume of approximately 90 mm^3, the mice were randomly assigned into 8 experimental groups with 8 to 10 animals in each group and received single daily injections for 28 days as follows: 1. Control (vehicle solution); 2. JMR-132 (10 μg/day s.c.); 3. Peptide 11123 (5 μg/day s.c.); 4. Peptide 11125 (5 μg/day s.c.); 5. Peptide 11307 (5 μg/day s.c.); 6. Peptide 11317 (5 μg/day s.c.); 7. Peptide 11473 (5 μg/day s.c.); 8. Peptide 11485 (5 μg/day s.c.). Tumor volumes were measured once a week. The experiment was ended on day 28 by sacrificing the mice under Isoflurane anesthesia. Resulting tumors were cleaned, weighed, and snap-frozen until further analyses. Statistical analyses of the measurement results were done by two-tailed t-test, p<0.05 being considered significant.

[4] = system: H460 human non-small cell lung cancer cell line; experiment: H460 human non-small cell lung cancer xenografts in nude mice (Example XV); conditions: 5 μg/day s.c.
Source text: The aim of this study was to find out the tumor inhibitor effect of the latest GHRH antagonists (Peptide 11423, Peptide 11602, Peptide 11604, Peptide 11606) on H460 human non-small cell lung cancer cell line. Female nude mice were xenografted subcutaneously with approximately 3 mm^3 pieces of H460 human non-small cell lung cancer malignant tumor tissue. When tumors reached the mean volume of approximately 90 mm^3, the animals was randomly assigned into different groups. Tumor volumes and body weight were measured once a week. At the end of the experiment mice were anesthetized and sacrificed. Tumors were carefully excised, weighed and were stored at −80° C. until further investigation. Organs and tumor samples were preserved in 10% formaldehyde.

[5] = system: Human ovarian cancer SKOV3 cells; experiment: SKOV3 ovarian cancer xenografts in nude mice; conditions: 5 μg/day s.c.
Source text: Human ovarian cancer SKOV3 cells growing exponentially were implanted info five female nude mice by subcutaneous (s.c.) injection of 10^7 cells in both flanks. Tumors That resulted after approximately 4 weeks in donor animals were then aseptically dissected and mechanically minced. Three mm^3 pieces of tumor tissue were transplanted subcutaneously into experimental animals with a trocar needle. When tumors reached an appropriate size (approximately 50 mm^3), mice were randomly divided into […]. The first was the control group, the second group was treated with daily s.c. injections of 5 μg P-11313, the third group was treated with daily s.c. injections of 5 μg P-11604, the fourth group was treated with daily s.c. injections of 5 μg P-11610. Tumor volume (length×width×height×0.5236) was measured every week and mean tumor volumes of each group were compared by Student's t-test. The study lasted 49 days. One week after end of treatment, mice were killed under anesthesia, tumors were snap frozen and stored at −70° C.

[6] = system: HT human diffuse mixed B cell lymphoma cell line; experiment: HT human diffuse mixed B cell lymphoma xenografts in nude mice; conditions: 5 μg/day s.c.
Experimental: The aim of this study was to find out the tumor inhibitor effect of the latest GHRH antagonists (Peptide 11602, Peptide 11604, Peptide 11606, and Peptide 11610) at the dose of 5 μg/day on HT human diffuse mixed B cell lymphoma cell line. Female nude mice were xenografted subcutaneously with approximately 3 mm^3 pieces of HT malignant tumor tissue. When tumors reached the mean volume of approximately 120 mm^3, the animals were randomly assigned into different groups. Tumor volumes and body weight were measured once a week. At the end of the experiment mice were anesthetized and sacrificed. Tumors were carefully excised, weighed and were stored at −80° C. until further investigation. Organs and tumor samples were preserved in 10% formaldehyde.

[7] = system: PC-3 human hormone-independent prostate cancer; experiment: PC3 androgen-independent prostate cancer xenografts in nude mice (Example XIV); conditions: 2 μg/day
Experimental: Male nude mice were implanted s.c. with 3 mm^3 pieces of PC-3 human hormone-independent prostate cancer tissue on both flanks. When tumors reached a volume of approximately 50 mm^3, the mice were divided into 8 experimental groups with 8 to 10 animals in each group and received single daily injections for 28 days as follows: 1. Control (vehicle solution); 2. P-11513 2 μg/day; 3. P-11602 2 μg/day; 4. P-11602 1 μg/day; 5. P-11604 2 μg/day; 6. P-11606 2 μg/day; 7. P-11610 2 μg/day; 8. P-11610 1 μg/day.
as §1

[(Ac-Ada)^0-Tyr^1, D-Arg^2, (Phe(F)5)^6, Ala^8, Har^9, Tyr(Me)^10, His^11, Orn^12, Abu^15, His^20, Orn^21, Nle^27, D-Arg^28, Har^29]hGH-RH(1-29)NH2 [Peptide 11479]
Number of regressing tumors ([1]; 77 days): 1 | Tumor growth after 77 days (%) ([1]; 77 days, means±S.E.): 235 ± 48 % | Tumor weights ([1]; day 77, means±S.E.): 144 ± 41 mg | Tumor doubling time ([1]; calculated without the regressing tumors): 156.7 ± 55.7 days

[(CH3—(CH2)10CO-Ada)^0-Tyr^1, D-Arg^2, Cpa^6, Ala^8, Har^9, Tyr(Me)^10, His^11, Orn^12, Abu^15, His^20, Orn^21, Nle^27, D-Arg^28, Har^29-Ada^30]hGH-RH(1-29)NH2 [Peptide 11485]
Tumor growth after 28 days (%) ([2]; 2 μg/day s.c.): 794% | Tumor growth after 46 days (%) ([2]; 2 μg/day s.c.): 1257% | Inhibitory effect on PC-3 tumors compared with reference peptide JMR-132 ([2]; 2 μg/day vs JMR-132 10 μg/day, after 46 days of treatment): had a more potent inhibitory effect than reference peptide JMR-132 | Inhibition (%) ([2]; after 28 days, 2 μg/day s.c.): 41.96% | Inhibition (%) ([2]; after 46 days, 2 μg/day s.c.): 62.24% | Tumor growth inhibition after 4 weeks (%) [3]: 9.04%

[(Ac-Ada)^0-Tyr^1, D-Arg^2, Cpa^6, Ala^8, Har^9, Tyr(Me)^10, His^11, Abu^15, His^20, Nle^27, D-Arg^28, Har^29-Ada^30]hGH-RH(1-29)NH2 [Peptide 11317]
Tumor growth inhibition after 4 weeks (%) [3]: 41.00% | Inhibition of H-460 lung tumor growth compared with reference peptide JMR-132 [3]: more potently inhibited the growth of H-460 lung tumors than the reference peptide JMR-132

[(Ac-Amc)-Tyr^1, D-Arg^2, Cpa^6, Ala^8, Har^9, Tyr(Me)^10, His^11, Orn^12, Abu^15, His^20, Nle^27, D-Arg^28, Har^29-Amc^30]hGH-RH(1-29)NH2 [Peptide 11307]
Tumor growth inhibition after 4 weeks (%) [3]: 30.98% | Inhibition of H-460 lung tumor growth compared with reference peptide JMR-132 [3]: more potently inhibited the growth of H-460 lung tumors than the reference peptide JMR-132

[(PhAc-Ada)^0-Tyr^1, D-Arg^2, (Phe(F)5)^6, Ala^8, Har^9, Tyr(Me)^10, His^11, Orn^12, Abu^15, His^20, Orn^21, Nle^27, D-Arg^28, Har^29, Agm^30]hGH-RH(1-29) [Peptide 11604]
TUMOR GROWTH (%) ([4]; day 1 (baseline)): 100.00% | TUMOR GROWTH (%) ([4]; day 7): 341.87% | Tumor inhibition (%) ([4]; day 7): 35.48% | TUMOR GROWTH (%) ([4]; day 14): 609.38% | Tumor inhibition (%) ([4]; day 14): 55.93% | TUMOR GROWTH (%) ([4]; day 21): 1006.40% | Tumor inhibition (%) ([4]; day 21): 59.24% | TUMOR GROWTH (%) ([4]; day 28): 1595.34% | Tumor inhibition (%) ([4]; day 28): 61.08% | TU growth (%) ([5]; day 0 (baseline)): 100% | TU growth (%) ([5]; day 7): 144.55% | TU inhibition (%) ([5]; day 7): 32.57% | TU growth (%) ([5]; day 14): 174.5% | TU inhibition (%) ([5]; day 14): 37.73% | TU growth (%) ([5]; day 21): 179.5% | TU inhibition (%) ([5]; day 21): 66.97% | TU growth (%) ([5]; day 28): 167.5% | TU inhibition (%) ([5]; day 28): 80.12% | TU growth (%) ([5]; day 35): 182.88% | TU inhibition (%) ([5]; day 35): 79.52% | TU growth (%) ([5]; day 42): 397.95% | TU inhibition (%) ([5]; day 42): 67.80% | TU growth (%) ([5]; day 49): 309.96% | TU inhibition (%) ([5]; day 49): 75.63% | TUMOR GROWTH (%) ([6]; day 1 (baseline)): 100% | Tumor inhibition (%) ([6]; day 1 (baseline)): 0% | Tumor volume (mm^3) ([6]; day 1 (baseline)): 125.04 mm^3 | TUMOR GROWTH (%) ([6]; day 7): 129.89% | Tumor inhibition (%) ([6]; day 7): 57.53% | Tumor volume (mm^3) ([6]; day 7): 165.21 mm^3 | TUMOR GROWTH (%) ([6]; day 14): 175.7% | Tumor inhibition (%) ([6]; day 14): 63.61% | Tumor volume (mm^3) ([6]; day 14): 231.44 mm^3 | TUMOR GROWTH (%) ([6]; day 21): 271.36% | Tumor inhibition (%) ([6]; day 21): 65.27% | Tumor volume (mm^3) ([6]; day 21): 563.86 mm^3 | TUMOR GROWTH (%) ([6]; day 28): 338.41% | Tumor inhibition (%) ([6]; day 28): 62.25% | Tumor volume (mm^3) ([6]; day 28): 818.2 mm^3 | TUMOR GROWTH (%) ([7]; day 0 (baseline)): 100% | TUMOR GROWTH (%) ([7]; day 7): 159.84% | Tumor inhibition (%) ([7]; day 7): 51.75% | TUMOR GROWTH (%) ([7]; day 14): 199.57% | Tumor inhibition (%) ([7]; day 14): 66.23% | TUMOR GROWTH (%) ([7]; day 21): 316.88% | Tumor inhibition (%) ([7]; day 21): 73.37% | TUMOR GROWTH (%) ([7]; day 28): 383.97% | Tumor inhibition (%) ([7]; day 28): 79.33%
